Entries after “also recorded” stand apart in the source; their conditions may differ. Counter-ions that a name gives are not always drawn.

The values below come from patent US5157049A, “Method of treating cancers sensitive to treatment with water soluble derivatives of taxol” (The United States of America as represented by the …, priority 1991, dated 1992).

For one data set, the system named is B16 Melanoma. In words: Antitumor activity in the B16 melanoma system (NCI screen). Particulars: for % T/C (median lifetime) / cures (live animals day 60): B16, Q01D × 09; for antitumor activity (in words): summary statements on in vivo screening, Table VI. As to the method:
Another approach to make basic derivatives is based on the concept of taking an existing hydrolysable derivative and further modifying it to form a derivative that allows for stepwise hydrolysis.
Antitumor Activity in the B16 Melanoma System^a
^a Screening was carried out under the auspices of the National Cance
Institute. For detailed explanations of procedures and data, see
Instruction 14, Screening Data Summary Interpretation and Outline of
Current Screen, Drug Evaluation Branch, Developmental Therapeutics
Program, Division of Cancer Treatment, National Cancer Institute,
Bethesda, Maryland 20892.
^b Q01D × 09. Single dose for 9 days; given in milligrams per
kilogram body weight per injection.
^c Abbreviations: survivors day 4, live animals on the fourth day of
testing/total animal; wt diff, g (T - C), the difference in body weight i
grams between test and control animals; % T/C, the median lifetime of tes
animals divided by the median lifetime of control animals, times 100; for
the solid tumor system % T/C is 100 × (change in treated tumor wt 1
day 11 - day 0)/change in control tumor wt.) if the tumor grows or 100
× (change in treated tumor wt./initial treated tumor wt.) if the
tumor regresses; cures, number of live animals on the last day of
evaluation for the B16 melanoma system (day 60) or number of animals
without measurable tumor on day 11 for the MX1 mammary tumor system.

A further data set in a line: Aqueous solubility. Particulars: water.
Where [1] appears, read: 7 mg/kg (so in the source) per injection.

As for `CC(=O)O[C@H]1C(=O)[C@]2(C)[C@@H](OC(=O)CCC(=O)O)C[C@H]3OC[C@@]3(OC(C)=O)[C@H]2[C@H](OC(=O)c2ccccc2)[C@]2(O)C[C@H](OC(=O)[C@H](OC(=O)CCC(=O)O)[C@@H](NC(=O)c3ccccc3)c3ccccc3)C(C)=C1C2(C)C` [Example 2, 2'7-Disuccinyltaxol], the “% T/C (median lifetime)” value in the data set with B16 Melanoma (1 mg/kg (so in the source) per injection) was determined as 124%; in the data set on B16 Melanoma (2.75 mg/kg per injection) it was 109%; in the data set on B16 Melanoma (5.5 mg/kg per injection), 113%; in the data set with B16 Melanoma (22 mg/kg per injection), 105%; in the data set on B16 Melanoma (44 mg/kg per injection), 114%. In addition, the “antitumor activity (in words)” value in the data set on B16 Melanoma was “considerably less active than the corresponding 2'-mono derivative of Example 1 and its salts”. Further, the “aqueous solubility (in words)” value in “Aqueous solubility” is “not water soluble”.
By solubility is commonly meant how much of the substance goes into solution per volume. Take `CC(=O)O[C@H]1C(=O)[C@]2(C)[C@@H](OC(=O)CCC(=O)O)C[C@H]3OC[C@@]3(OC(C)=O)[C@H]2[C@H](OC(=O)c2ccccc2)[C@]2(O)C[C@H](OC(=O)[C@H](OC(=O)CCC(=O)O)[C@@H](NC(=O)c3ccccc3)c3ccccc3)C(C)=C1C2(C)C` [Example 2, Na-Salt]: the “% T/C (median lifetime)” value in the data set on B16 Melanoma (2.75 mg/kg per injection, listed as 2, Na-Salt) came out at 120%; in the data set with B16 Melanoma (5.5 mg/kg per injection, listed as 2, Na-Salt), 114%; in the data set with B16 Melanoma (11 mg/kg per injection), 149%; in the data set on B16 Melanoma (22 mg/kg per injection, listed as 2, Na-Salt), 109%; in the data set on B16 Melanoma (44 mg/kg per injection, listed as 2, Na-Salt) it was 166%. Also, the “antitumor activity (in words)” value in the data set with B16 Melanoma (listed as 2, sodium salt) is “improved antitumor activity as compared to the free acid; also recorded: considerably less active than the corresponding 2'-mono derivative of Example 1 and its salts”. The molecule also had a solubility in the data set “Aqueous solubility” (aqueous solubility) of approximately 3000 µg/mL.
In the case of `CC(=O)O[C@H]1C(=O)[C@@]2(C)[C@H]([C@H](OC(=O)c3ccccc3)[C@]3(O)C[C@H](OC(=O)[C@H](OC(=O)CCC(=O)O)[C@@H](NC(=O)c4ccccc4)c4ccccc4)C(C)=C1C3(C)C)[C@]1(OC(C)=O)CO[C@@H]1C[C@@H]2O` [Example 8, 2'-Succinyltaxol, Triethanolamine Salt], the “% T/C (median lifetime)” value is listed as 230% in the data set on B16 Melanoma (6.75 mg/kg per injection), 314% with B16 Melanoma (setting [1]), 264% in the data set on B16 Melanoma (13.5 mg/kg per injection) and “TOXIC” with B16 Melanoma (54 mg/kg per injection). Besides, the “cures (live animals day 60)” value with B16 Melanoma (6.75 mg/kg per injection) stood at 1; in the data set on B16 Melanoma (setting [1]), 3; with B16 Melanoma (13.5 mg/kg per injection), 1. Moreover, the “antitumor activity (in words)” value in the data set on B16 Melanoma is “much more active than the compound of Example 12; also recorded: especially active and potent”. In addition, in the data set “Aqueous solubility”, the aqueous solubility entry is “about 1%”. In “Aqueous solubility”, the “aqueous solubility (in words)” value is “greatly improved aqueous solubility; also recorded: although still soluble, the solutions were not clear and became very viscous”.
Take `CC(=O)O[C@H]1C(=O)[C@@]2(C)[C@H]([C@H](OC(=O)c3ccccc3)[C@]3(O)C[C@H](OC(=O)[C@H](OC(=O)CCC(=O)O)[C@@H](NC(=O)c4ccccc4)c4ccccc4)C(C)=C1C3(C)C)[C@]1(OC(C)=O)CO[C@@H]1C[C@@H]2O` [Example 11]: the “% T/C (median lifetime)” value in the data set with B16 Melanoma (6.25 mg/kg per injection) was determined as 125%; with B16 Melanoma (12.5 mg/kg per injection), 134%; in the data set with B16 Melanoma (25 mg/kg per injection), 176%; in the data set on B16 Melanoma (50 mg/kg per injection), 241%. Moreover, the “antitumor activity (in words)” value in the data set on B16 Melanoma is recorded as “much more active than the compound of Example 12”. In addition, the aqueous solubility entry in “Aqueous solubility” was “about 1%”. The “aqueous solubility (in words)” value in “Aqueous solubility” is “greatly improved aqueous solubility; also recorded: although still soluble, the solutions were not clear and became very viscous”.
